The text below walks through data of ChEMBL document CHEMBL4118163, “Identification and preliminary structure-activity relationship studies of novel pyridyl sulfonamides as potential Chagas disease therapeutic agents” (Bioorg Med Chem Lett, 2018).

Each structure is given as a SMILES string. Where only a bound is given, the exact number is not on record here.

The subject of data set [1] is Trypanosoma cruzi. The experiment in a line: Antitrypanosomal activity against Trypanosoma cruzi Tulahuen amastigotes infected in mouse L929 cells assessed as reduction in infection level at 10 uM after 96 hrs by beta galactosidase reporter assay relative to control. The class given is functional. The settings on record: L929, 96 h.
Data set [2] is described as follows: Cytotoxicity against mouse L929 cells assessed as reduction in cell viability after 96 hrs by alamar blue assay. Format: cell-based. As to conditions: read-out: LC50.
Data set [3] concerns Trypanosoma cruzi. Nature of the data set: Antitrypanosomal activity against Trypanosoma cruzi Tulahuen amastigotes infected in mouse L929 cells after 96 hrs by beta galactosidase reporter assay. The settings on record: L929, 96 h. Format: functional, organism-based.
Data set [4] can be described thus: Cytotoxicity against Swiss Webster mouse cardiomyocyte assessed as reduction in cell viability after 24 hrs by PrestoBlue assay. The settings on record: cardiomyocytes, read-out: LC50. Further details: species or system Cardiac Muscle Cell.
Data set [5] has as its system Trypanosoma cruzi. The experiment in a line: Antitrypanosomal activity against bloodstream trypomastigote stage of Trypanosoma cruzi Y infected in Swiss Webster mouse cardiac cells after 24 hrs. The class given is functional, organism-based.
Data set [6] is described as follows: Selectivity index, ratio of LC50 for mouse L929 cells to EC50 for Trypanosoma cruzi Tulahuen amastigotes. Format: toxicity. As to conditions: read-out: Selectivity Index.
The next data set deals with Vero. The experiment in a line: Cytotoxic activity against African green monkey Vero cells. The class given is cell-based. The settings on record: Chlorocebus sabaeus.
The test system of data set [7] is Trypanosoma cruzi. Nature of the data set: Antitrypanosomal activity against Trypanosoma cruzi Silvio X10/7 intracellular forms. The class given is functional, organism-based.
A short description of data set [8]: Selectivity index, ratio of LC50 for Swiss Webster mouse cardiac cells to EC50 for bloodstream trypomastigote stage of Trypanosoma cruzi Y. Format: toxicity. As to conditions: read-out: Selectivity Index.

`COc1ccc(S(=O)(=O)NCc2ccccn2)c(C)c1C`: the inhibition at 10 µM in the data set on Trypanosoma cruzi [1] worked out at 7.2%. In [2], the CC50 at 96 h is more than 200 µM.

As to `CCOc1ccc(S(=O)(=O)NCc2cccnc2)c2ccccc12`, in the data set with Trypanosoma cruzi [1], the inhibition at 10 µM came to 1.1%. In [2], the CC50 at 96 h was more than 200 µM.

As for `CCOc1ccc(S(=O)(=O)Nc2ccncc2)c(C)c1C`, the inhibition at 10 µM with Trypanosoma cruzi [1] turned out to be 3.6%. In data set [2], the CC50 at 96 h was more than 200 µM.

Regarding `CCOc1ccc(S(=O)(=O)NCc2ccccn2)c(C)c1C`, the inhibition at 10 µM with Trypanosoma cruzi [1] turned out to be 3.6%. Moreover, the CC50 at 96 h in data set [2] is more than 200 µM.

Take `COc1ccc(S(=O)(=O)NCc2cccnc2)c2ccccc12`: in the data set with Trypanosoma cruzi [1], the inhibition at 10 µM is 28%. In addition, in [2], the CC50 at 96 h was more than 200 µM.

On to `COc1c(C)cc(S(=O)(=O)Nc2cccnc2)c(C)c1C`, for which, in the data set on Trypanosoma cruzi [1], the inhibition at 10 µM was found to be 2.1%. For the same compound, the CC50 at 96 h in data set [2] is more than 200 µM.

For `CCCOc1cc(C)c(S(=O)(=O)Nc2cccnc2)cc1C`, the EC50 was 13.2 µM with Trypanosoma cruzi [3] and more than 50 µM with Trypanosoma cruzi [5]. Further, the CC50 at 24 h in [4] is more than 100 µM. Besides, the inhibition at 10 µM in the data set on Trypanosoma cruzi [1] is 78%. The CC50 at 96 h in data set [2] was more than 200 µM. Also, the selectivity ratio in data set [6] was more than 15.

As for `CCOc1ccc(S(=O)(=O)Nc2cccnc2)cc1CC`, the inhibition at 10 µM with Trypanosoma cruzi [1] worked out at 3%. The CC50 at 96 h in data set [2] was more than 200 µM.

For `COc1ccc(S(=O)(=O)Nc2ccc(Cc3ccncc3)cc2)c2ccccc12`, the inhibition at 10 µM in the data set with Trypanosoma cruzi [1] was 0%. Besides, the CC50 at 96 h in [2] is more than 200 µM.

`COc1ccc2cc(S(=O)(=O)Nc3cccnc3)ccc2c1`: the EC50 is 5.44 µM in the data set on Trypanosoma cruzi [3] and more than 50 µM in the data set on Trypanosoma cruzi [5]. Also, in data set [4], the CC50 at 24 h is more than 100 µM. The inhibition at 10 µM in the data set on Trypanosoma cruzi [1] was 41.1%. In addition, in data set [2], the CC50 at 96 h is more than 200 µM. Further, the selectivity ratio in data set [6] was more than 36.

As to `CCOc1ccc(S(=O)(=O)Nc2cccnc2)c(C)c1C`, the EC50 in the data set with Trypanosoma cruzi [3] is 14.8 µM; in the data set on Trypanosoma cruzi [5], more than 50 µM. The CC50 at 24 h in data set [4] was more than 100 µM. Moreover, the inhibition at 10 µM in the data set with Trypanosoma cruzi [1] worked out at 62%. In addition, in data set [2], the CC50 at 96 h is more than 200 µM. In addition, the selectivity ratio in data set [6] was more than 13.5.

Turning to `CCOc1ccc(S(=O)(=O)Nc2cccnc2)cc1C(C)(C)C`, the inhibition at 10 µM in the data set with Trypanosoma cruzi [1] was found to be 1.9%. Further, the CC50 at 96 h in data set [2] was more than 200 µM.

Consider `CCOc1ccc(S(=O)(=O)NCc2ccncc2)c(C)c1C`, for which the figures for the EC50 in the data set on Trypanosoma cruzi [3] and in the data set with Trypanosoma cruzi [5] were 8.62 µM and more than 50 µM, respectively. The CC50 at 24 h in data set [4] was more than 100 µM. The inhibition at 10 µM in the data set on Trypanosoma cruzi [1] was determined as 65%. In addition, the CC50 at 96 h in data set [2] is more than 200 µM. Further, the selectivity ratio in data set [6] is more than 23.

As for `COc1cc(C)c(S(=O)(=O)Nc2cccnc2)cc1C(C)C`, the inhibition at 10 µM in the data set with Trypanosoma cruzi [1] came out at 26.7%. The CC50 at 96 h in data set [2] was more than 200 µM.

Take `CCOc1ccc(S(=O)(=O)Nc2cccnc2)c2ccccc12`: the EC50 with Vero was 50 µM; with Trypanosoma cruzi [3], more than 25 µM; with Trypanosoma cruzi [7], 5.5 µM. For the same compound, the CC50 at 96 h in data set [2] was more than 400 µM.

For the compound `CCOc1ccc(S(=O)(=O)Nc2ccncc2)c2ccccc12`, in the data set with Trypanosoma cruzi [1], the inhibition at 10 µM was 0.1%. The CC50 at 96 h in [2] was more than 200 µM.

As for `O=C(Cn1ccnc1[N+](=O)[O-])NCc1ccccc1` [BENZNIDAZOLE], the figures for the EC50 in the data set on Trypanosoma cruzi [3] and in the data set on Trypanosoma cruzi [5] were 3.51 µM and 11.2 µM, respectively. Further, the selectivity ratio is more than 89 in data set [8] and more than 114 in [6]. Also, the CC50 at 24 h in data set [4] is more than 1000 µM. For the same compound, the inhibition at 10 µM with Trypanosoma cruzi [1] turned out to be 89.3%. Further, in data set [2], the CC50 at 96 h is more than 400 µM.

Turning to `CC1CS(=O)(=O)CCN1/N=C/c1ccc([N+](=O)[O-])o1` (centres undefined) [NIFURTIMOX], the half-maximal effective concentration (EC50) in the data set on Vero came to 50 µM; in the data set with Trypanosoma cruzi [7] it was 0.9 µM.
